Experimental data taken from patent US12637410B2, “Vesicular monoamine transporter-2 ligands and their use in the treatment of psychostimulant abuse” (priority 2016, dated 2026).
Where two headings read alike, the source gives them in different places.

Tests used:
VMAT2 = biological target: T1, VMAT2 (Rattus norvegicus, UniProt Q01827); assay: [3H]Dopamine ([3H]DA) uptake assay, vesicular preparation; assay type: biochemical
T1 construct: from tissue; host or cells: rat striatum, isolated synaptic vesicles

hERG channel = biological target: T2, hERG channel (Homo sapiens, UniProt Q12809); assay: [3H]Dofetilide binding assay, HEK-293 cell membrane preparation; details: hERG Binding: Mean Ki (nM)
T2 construct: purchased; host or cells: HEK-293 cells stably expressing hERG (membranes)
Description: Membranes were suspended in assay buffer (50 mM Tris, 10 mM KCl, 1 mM MgCl2, pH 7.4) prior to the experiment. […] Nonspecific binding was determined in the presence of amitriptyline (1 mM). Samples were incubated for 1 hr. at 24° C., followed by rapid filtration.

[1] = Microsomal assays, rat liver microsomes; details: for Microsomal stability assays: Species/Half-life (hr) Rat: rat liver microsomes; for CLint scaled at 0.08 µM: female, Sprague-Dawley, rat, pH 7.4
Description: Each plate holds triplicate samples of two controls (0.4 mM) and up to 14 compounds (0.08 mM) in rat and human liver microsomes. Aliquots of each well of the plate (175 μl of each well) were transferred from the master plate into 5 assay plates. […] NADPH regenerating system solution A (6.05 ml, Fisher Scientific, #NC9255727) was combined with NADPH regenerating system solution B (1.21 ml, Fisher Scientific, #NC9016235) in potassium phosphate buffer (15.8 ml, 0.1 M, pH 7.4, 37° C.). The resulting NADPH solution (43.8 μl) was added to each well of all the 96-well assay plates and mixed with pipette briefly making the final protein and compound concentrations respectively: 0.5 mg/ml, 0.08 μM (0.4 μM for controls). Plates were sealed, and all plates except the 0-hr plate were incubated at 37° C., shaken at a speed of 60 rpm. A single assay plate was tested at each time point: 0.5 hr, 1 hr, 2 hr, and 4 hr. At each time point, 437.5 μL of pre-cooled internal standard was added each well of the plate to quench the reaction. […] 120 μl supernatant was transferred to a 96-well plate, centrifuged again and analyzed by UPLC-MS (Waters Inc., Milford, MA). The compounds and internal standard were detected by selected ion recording (SIR).
The amount of material was measured as a ratio of peak area to the internal standard and graphed. Using the slope from the initial linear portion of this curve, the degradation rate constant is calculated using equation [1]. The rate constant was then used to calculate the compounds half-life in plasma using equation [2].

[2] = biological target: dopamine transporter (DAT) (Rattus norvegicus, UniProt P23977); assay: [3H]DA uptake assay, synaptosomal preparation
Description: [^3H]DA and [3H]5-HT uptake into striatal synaptosomes was determined to evaluate compound inhibition of the dopamine transporter (DAT) and the serotonin transporter (SERT), respectively. […] Assays were performed in duplicate in a total volume of 500 μL (for DAT assays) or 250 μL (for SERT assays). Aliquots of the synaptosomal suspension (25 μL for DAT, 50 μL for SERT) were added to tubes containing assay buffer and various concentrations of analog (1 nM-100 μM), and incubated at 34° C. for 5 min. Nonspecific uptake was determined in the presence of nomifensine (10 μM) for DAT assays or fluoxetine (10 μM) for SERT assays. […] Samples were placed on ice, and 50 μL of 0.1 μM [^3H]DA (for DAT assays) or 25 μL of 0.1 μM [^3H]5-HT (for SERT assays) was added to each tube, and incubated for 10 min at 34° C. Reactions were terminated by addition of 3 mL of ice-cold assay buffer and subsequent filtration and radioactivity retained by the filters was determined by liquid scintillation spectrometry (Tri-Carb 2100TR liquid scintillation analyzer; PerkinElmer Life and Analytical Sciences, Boston, MA).

[3] = [3H]dofetilide binding, HEK-293 membranes, mean of n>=3 unless N given
[4] = [3H]DA uptake, rat vesicular preparation, mean of n>=3 unless N given, read-out: VMAT2 (rat) Inhibition: Mean Ki
[5] = Table 4, mean, minimally n = 3, read-out: VMAT2 (rat) Inhibition: Mean Ki

T2 sequence (Q12809 whole entry): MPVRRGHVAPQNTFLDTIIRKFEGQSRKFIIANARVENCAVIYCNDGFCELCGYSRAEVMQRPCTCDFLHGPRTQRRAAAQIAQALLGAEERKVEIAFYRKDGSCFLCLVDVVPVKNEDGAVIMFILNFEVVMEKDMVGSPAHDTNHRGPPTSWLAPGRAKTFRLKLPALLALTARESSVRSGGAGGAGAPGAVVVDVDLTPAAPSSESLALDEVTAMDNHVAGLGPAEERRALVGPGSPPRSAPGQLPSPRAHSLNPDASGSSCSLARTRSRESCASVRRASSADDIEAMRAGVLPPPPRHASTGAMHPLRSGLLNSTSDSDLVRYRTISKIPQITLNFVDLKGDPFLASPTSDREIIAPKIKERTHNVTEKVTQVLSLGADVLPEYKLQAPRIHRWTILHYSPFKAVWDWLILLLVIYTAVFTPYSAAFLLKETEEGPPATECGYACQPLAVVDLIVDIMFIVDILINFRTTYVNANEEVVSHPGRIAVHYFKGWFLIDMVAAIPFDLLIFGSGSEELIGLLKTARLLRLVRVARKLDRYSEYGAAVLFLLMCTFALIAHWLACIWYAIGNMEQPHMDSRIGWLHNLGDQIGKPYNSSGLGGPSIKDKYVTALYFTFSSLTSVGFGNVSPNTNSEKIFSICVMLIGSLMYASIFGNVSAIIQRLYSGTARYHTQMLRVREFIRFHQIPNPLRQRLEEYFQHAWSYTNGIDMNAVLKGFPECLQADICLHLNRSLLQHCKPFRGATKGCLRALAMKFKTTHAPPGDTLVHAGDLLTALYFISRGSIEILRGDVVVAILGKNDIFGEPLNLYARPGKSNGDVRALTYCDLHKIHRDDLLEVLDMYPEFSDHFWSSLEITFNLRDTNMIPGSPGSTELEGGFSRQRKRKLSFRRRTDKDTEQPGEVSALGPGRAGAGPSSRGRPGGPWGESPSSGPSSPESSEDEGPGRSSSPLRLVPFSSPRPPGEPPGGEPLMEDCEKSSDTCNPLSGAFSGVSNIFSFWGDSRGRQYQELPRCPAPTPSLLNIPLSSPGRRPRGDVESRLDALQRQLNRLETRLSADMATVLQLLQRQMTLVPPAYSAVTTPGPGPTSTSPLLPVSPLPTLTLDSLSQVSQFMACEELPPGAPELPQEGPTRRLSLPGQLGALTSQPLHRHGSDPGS
T1 sequence (Q01827 whole entry): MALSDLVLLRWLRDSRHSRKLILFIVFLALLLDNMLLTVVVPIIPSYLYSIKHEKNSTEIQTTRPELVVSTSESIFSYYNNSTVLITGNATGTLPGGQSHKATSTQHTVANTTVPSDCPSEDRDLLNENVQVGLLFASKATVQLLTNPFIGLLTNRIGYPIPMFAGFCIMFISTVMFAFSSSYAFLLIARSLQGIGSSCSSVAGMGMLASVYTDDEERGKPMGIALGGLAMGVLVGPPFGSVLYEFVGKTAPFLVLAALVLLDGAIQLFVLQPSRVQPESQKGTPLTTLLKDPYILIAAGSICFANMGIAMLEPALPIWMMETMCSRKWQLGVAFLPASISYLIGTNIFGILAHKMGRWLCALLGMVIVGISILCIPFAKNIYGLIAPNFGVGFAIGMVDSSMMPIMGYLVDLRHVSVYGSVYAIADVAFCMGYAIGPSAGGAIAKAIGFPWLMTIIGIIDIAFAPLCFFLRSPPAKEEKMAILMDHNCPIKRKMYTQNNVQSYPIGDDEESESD
dopamine transporter (DAT), sequence (P23977 whole entry): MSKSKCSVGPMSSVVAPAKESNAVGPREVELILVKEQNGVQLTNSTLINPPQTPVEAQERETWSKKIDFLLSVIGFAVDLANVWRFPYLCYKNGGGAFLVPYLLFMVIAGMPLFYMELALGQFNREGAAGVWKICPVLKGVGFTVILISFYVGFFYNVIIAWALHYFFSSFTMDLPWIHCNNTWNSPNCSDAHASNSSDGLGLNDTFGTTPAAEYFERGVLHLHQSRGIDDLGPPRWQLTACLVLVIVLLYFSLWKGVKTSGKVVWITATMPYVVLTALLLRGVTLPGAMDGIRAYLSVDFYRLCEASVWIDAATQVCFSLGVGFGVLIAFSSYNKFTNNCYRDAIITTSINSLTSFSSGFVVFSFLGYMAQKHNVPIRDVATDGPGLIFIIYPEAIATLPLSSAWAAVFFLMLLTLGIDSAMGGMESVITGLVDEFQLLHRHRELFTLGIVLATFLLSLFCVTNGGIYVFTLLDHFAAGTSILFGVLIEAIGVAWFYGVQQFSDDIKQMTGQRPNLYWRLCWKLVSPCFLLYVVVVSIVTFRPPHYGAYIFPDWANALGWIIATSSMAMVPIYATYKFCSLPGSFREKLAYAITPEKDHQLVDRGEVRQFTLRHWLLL

SMILES | Ki (VMAT2) [µM] | Ki (hERG channel; [3]) [nM] | further results
CC(Cc1ccccc1)ONCCc1ccccc1 (racemic) [Compound 295] | 41.3 | – | –
CC(Cc1ccc(F)cc1)NCCCc1ccc2[nH]ccc2c1 (stereo not shown) [Compound 56] | – | 1260 | Microsomal stability assays: Species/Half-life (hr) Rat [1]: 0.1 h
CC(Cc1ccc(NC=O)cc1)NCCCc1ccc(F)cc1 (stereo not shown) [Compound 88] | 0.012 | – | –
CC(Cc1ccc(F)cc1)NCCCc1c[nH]c2ccccc12 (stereo not shown) [Compound 91] | – | – | Microsomal stability assays: Species/Half-life (hr) Rat [1]: 0.1 h
FCC(Cc1ccccc1)NCCCc1ccccc1 (stereo not shown) [Compound 98] | – | – | Microsomal stability assays: Species/Half-life (hr) Rat [1]: 0.1 h
FCC(Cc1ccccc1)NCCCc1ccc(F)cc1 (stereo not shown) [Compound 101] | – | – | Ki (VMAT2; [4]): 0.017 µM
CC(Cc1ccc([N+](=O)[O-])cc1)NCCCc1ccc(Br)cc1 (stereo not shown) [Compound 121] | – | – | Microsomal stability assays: Species/Half-life (hr) Rat [1]: 0.1 h
CC(Cc1ccc(F)cc1)NCCCc1ccccc1 (stereo not shown) [Compound 126] | – | – | Microsomal stability assays: Species/Half-life (hr) Rat [1]: 0.1 h
CC(C)C(Cc1ccc(F)cc1)NCCCc1ccccc1 (stereo not shown) [Compound 136] | 0.46 | – | –
CC(C)C(Cc1ccc(F)cc1)NCCCc1ccc(Br)cc1 (stereo not shown) [Compound 140] | – | – | Microsomal stability assays: Species/Half-life (hr) Rat [1]: 0.1 h
CC(Cc1ccc(F)cc1)NCCCc1ccc(N(C)C)cc1 (stereo not shown) [Compound 156] | – | 49000 | –
COc1ccc(CCCNC(C)Cc2ccncc2)cc1 (stereo not shown) [Compound 172] | – | – | Microsomal stability assays: Species/Half-life (hr) Rat [1]: 0.1 h
CC(Cc1ccc(F)cc1)NCCCc1ccc(Cl)cc1 (stereo not shown) [Compound 188] | – | 500 | –
CC(Cc1ccc(F)c(F)c1)NCCCc1ccc2nccnc2c1 (stereo not shown) [Compound 232] | 0.052 | 3300 | Ki (hERG channel; Table 4, mean, minimally n = 3): 2590 nM; CLint scaled at 0.08 µM [1]: 159 mL/min/kg; Ki [2]: 3.58 µM
CC(Cc1ccc(F)c(F)c1)NCCCc1ccc2cn[nH]c2c1 (stereo not shown) [Compound 233] | 0.033 | 483 | –
CC(Cc1ccc(F)c(F)c1)NCCCc1ccc2[nH]ncc2c1 (stereo not shown) [Compound 234] | 0.054 | 1020 | Ki (hERG channel; Table 4, mean, minimally n = 3): 1020 nM; CLint scaled at 0.08 µM [1]: 114 mL/min/kg; Ki [2]: 0.703 µM
CC(Cc1ccc(F)c(F)c1)NCCCc1cccc(S(N)(=O)=O)c1 (stereo not shown) [Compound 236] | 0.099 | 2010 | –
CC(Cc1ccc(F)c(F)c1)NCCCc1ccccc1N (stereo not shown) [Compound 238] | 0.22 | 3250 | –
CC(Cc1ccc(Br)cc1)NCCCc1ccc(N)cc1 (stereo not shown) [Compound 240] | 0.048 | 1130 | –
CC(Cc1ccc(F)cc1)NCCCc1cccc(N)c1 (stereo not shown) [Compound 241] | 0.106 | 6390 | –
CC(Cc1ccc(F)cc1)NCCCc1ccc(Cl)c(N)c1 (stereo not shown) [Compound 242] | 0.038 | 1440 | –
CC(Cc1ccc(F)c(F)c1)NCCCc1ccc(-c2ccnn2C)cc1 (stereo not shown) [Compound 244] | 0.118 | 1030 | –
CC(Cc1ccc(F)c(F)c1)NCCCc1ccccc1-c1ccnn1C (stereo not shown) [Compound 245] | 0.136 | 2240 | –
CC(Cc1c[nH]c2ccccc12)NCCCc1ccc(F)cc1 (stereo not shown) [Compound 246] | 0.066 | 731 | –

SMILES | Ki (VMAT2) [µM] | Ki (hERG channel; [3]) [nM] | further results
CC(Cc1ccc(F)c(F)c1)NCCCc1ccnc(C(F)(F)F)c1 (stereo not shown) [Compound 247] | 0.349 | – | –
CC(Cc1ccc(F)c(F)c1)NCCCc1cccc(C(F)(F)F)c1 (stereo not shown) [Compound 250] | 0.039 | 4100 | –
CC(Cc1ccc(F)cc1)NCCCc1ccc([N+](=O)[O-])c(C(F)(F)F)c1 (stereo not shown) [Compound 251] | 0.055 | 535 | –
CC(Cc1ccc(F)c(F)c1)NCCCc1ccc2ncsc2c1 (stereo not shown) [Compound 252] | 0.067 | 1580 | –
CC(Cc1ccc(F)c(F)c1)NCCCc1ccc2c(c1)C(=O)OC2 (stereo not shown) [Compound 253] | 0.268 | – | –
CC(Cc1ccc(F)c(F)c1)NCCCc1ccc2c(c1)[nH]c(=O)n2C (stereo not shown) [Compound 254] | 0.187 | – | –
CC(Cc1ccc(F)c(F)c1)NCCCc1cccc2ncoc12 (stereo not shown) [Compound 255] | 0.054 | 3370 | –
CC(Cc1ccc(F)c(F)c1)NCCCc1ccc2ncoc2c1 (stereo not shown) [Compound 256] | 0.05 | 4880 | –
CC(Cc1ccc(F)c(F)c1)NCCCc1ccc(C(=O)O)cc1 (stereo not shown) [Compound 257] | 6.48 | > 34700 | –
CC(Cc1ccc(F)c(F)c1)NCCCc1ccc(OC(C)C)cc1 (stereo not shown) [Compound 259] | 0.104 | 818 | –
CSc1ccc(CCCNC(C)Cc2ccc(F)c(F)c2)cc1 (stereo not shown) [Compound 261] | 0.032 | 316 | –
CC(Cc1ccc(F)c(F)c1)NCCCc1ccc(C(C)(C)C)cc1 (stereo not shown) [Compound 264] | 0.209 | 2190 | –
CC(Cc1ccc(F)c(F)c1)NCCCc1cccc(N)c1 (stereo not shown) [Compound 265] | 0.202 | 5560 | –
CC(Cc1ccc(F)c(F)c1)NCCCc1cccc(N(C)C)c1 (stereo not shown) [Compound 266] | 0.171 | 2460 | –
CC(Cc1ccc(F)c(F)c1)NCCCc1cccc(Cl)c1 (stereo not shown) [Compound 267] | 0.019 | 1000 | –
CC(Cc1ccc(F)c(F)c1)NCCCc1ccccc1Cl (stereo not shown) [Compound 268] | 0.028 | 233 | –
CC(Cc1ccc(F)c(F)c1)NCCCc1ccc(Cl)cc1Cl (stereo not shown) [Compound 269] | 0.061 | 279 | –
CC(Cc1ccc(F)c(F)c1)NCCCc1cc(Cl)cc(Cl)c1 (stereo not shown) [Compound 270] | 0.038 | 1500 | –
CC(Cc1ccc(F)c(F)c1)NCCCc1cccc(Cl)c1Cl (stereo not shown) [Compound 271] | 0.042 | 462 | –
CC(Cc1ccc(F)c(F)c1)NCCCc1ccc(Cl)c(Cl)c1 (stereo not shown) [Compound 272] | 0.057 | 462 | –
CC(Cc1ccc(F)c(F)c1)NCCCc1ccc(Cl)c(C(F)(F)F)c1 (stereo not shown) [Compound 273] | 0.538 | 1220 | –
CC(Cc1ccc(F)c(F)c1)NCCCc1ccc(NS(C)(=O)=O)cc1 (stereo not shown) [Compound 274] | 0.045 | 220 | –
CC(Cc1ccc(F)cc1)NCCCc1ccc(NS(C)(=O)=O)cc1 (stereo not shown) [Compound 275] | 0.053 | 308 | –
CC(=O)Nc1ccc(CCCNC(C)Cc2ccc(Br)cc2)cc1 (stereo not shown) [Compound 276] | 0.024 | 3430 | –

SMILES | Ki (VMAT2) [µM] | Ki (hERG channel; [3]) [nM] | further results
CC(Cc1c[nH]c2ccccc12)NCCCc1ccc(F)cc1 (stereo not shown) [Compound 277] | – | 732 | Ki (VMAT2; read-out: VMAT2 (rat) Inhibition: Mean Ki, [3H]DA uptake, rat vesicular preparation, mean of n>=3 unless N given): 0.066 µM
CC(Cc1ccc(F)cc1)NCCCc1cccnc1 (stereo not shown) [Compound 278] | 0.098 | 3980 | –
CC(Cc1ccc(F)cc1)NCCCc1ccccn1 (stereo not shown) [Compound 279] | 0.2 | 2400 | –
CC(Cc1ccc(F)c(F)c1)NCCCc1cccc(-c2ccnn2C)c1 (stereo not shown) [Compound 281] | 0.051 | 592 | –
CC(Cc1ccc(F)c(F)c1)NCCCc1ccccc1-c1cccnc1 (stereo not shown) [Compound 282] | 0.088 | 364 | –
CC(Cc1ccc(F)c(F)c1)NCCCc1cccc(-c2cccnc2)c1 (stereo not shown) [Compound 283] | 0.041 | 182 | –
O=C(O)C(Cc1ccc(F)cc1)NCCCc1ccc(Br)cc1 (stereo not shown) [Compound 286] | 3.13 | – | –
NC(Cc1cn(Cc2ccccc2)cn1)C(=O)OCC(Cc1ccc(F)cc1)NCCCc1ccc(Br)cc1 (stereo not shown) [Compound 287] | 0.533 | – | –
CC(Cc1ccccc1)N(CCCc1ccc(O)cc1)C(=O)OC(C)(C)C (stereo not shown) [Compound 288] | > 100 | – | –
CC(Cc1ccccc1)N(CCCc1ccc([N+](=O)[O-])cc1)C(=O)OCc1ccccc1 (stereo not shown) [Compound 289] | 2.97 | – | –
CC(Cc1ccccc1)N(CCCc1ccc(I)cc1)C(=O)OCc1ccccc1 (stereo not shown) [Compound 290] | – | – | Ki (VMAT2; [4]): 4.8 µM
CC(Cc1ccccc1)N(CCCc1ccc(N)cc1)C(=O)OCc1ccccc1 (stereo not shown) [Compound 291] | – | – | Ki (VMAT2; [4]): 3.1 µM
C[C@H](Cc1ccccc1)ONCCc1ccccc1 [Compound 296] | 20 | – | –
CC(Cc1ccc(F)c(F)c1)NCCCc1ccc(C(N)=O)c(Cl)c1 (stereo not shown) [Compound 297] | 0.021 | – | Ki (hERG channel; Table 4, mean, minimally n = 3): 5020 nM; CLint scaled at 0.08 µM [1]: < 17 mL/min/kg; Ki [2]: 5.82 µM
CC(Cc1ccc(F)cc1)NCCCc1ccc(C(N)=O)cc1 (stereo not shown) [Compound 298] | – | – | Ki (VMAT2; [5]): 0.016 µM; Ki (hERG channel; Table 4, mean, minimally n = 3): 12400 nM; CLint scaled at 0.08 µM [1]: 18 mL/min/kg; Ki [2]: 3.98 µM
CC(Cc1ccc(F)c(F)c1)NCCCc1ccc(C(N)=O)c(F)c1 (stereo not shown) [Compound 299] | 0.029 | – | Ki (hERG channel; Table 4, mean, minimally n = 3): 12100 nM; CLint scaled at 0.08 µM [1]: 19 mL/min/kg; Ki [2]: 4.21 µM
CC(Cc1cc(F)cc(F)c1)NCCCc1ccc(C(N)=O)cc1 (stereo not shown) [Compound 300] | – | – | Ki (VMAT2; [5]): 0.006 µM; Ki (hERG channel; Table 4, mean, minimally n = 3): 8100 nM; CLint scaled at 0.08 µM [1]: 21 mL/min/kg; Ki [2]: 1.57 µM
CC(Cc1cccc(C(N)=O)c1)NCCCc1ccc(F)cc1 (stereo not shown) [Compound 301] | – | – | Ki (VMAT2; [5]): 0.043 µM; Ki (hERG channel; Table 4, mean, minimally n = 3): 1310 nM; CLint scaled at 0.08 µM [1]: 22 mL/min/kg; Ki [2]: 6.07 µM
CC(Cc1ccc(NC(N)=O)cc1)NCCCc1ccc(F)cc1 (stereo not shown) [Compound 302] | 0.034 | – | Ki (hERG channel; Table 4, mean, minimally n = 3): 7110 nM; CLint scaled at 0.08 µM [1]: 30 mL/min/kg; Ki [2]: 3.13 µM
CC(Cc1ccc2[nH]cnc2c1)NCCCc1ccc(F)cc1 (stereo not shown) [Compound 303] | 0.022 | – | Ki (hERG channel; Table 4, mean, minimally n = 3): 2900 nM; CLint scaled at 0.08 µM [1]: 40 mL/min/kg; Ki [2]: 4.77 µM
CC(Cc1ccc(C(N)=O)cc1)NCCCc1ccc(F)cc1 (stereo not shown) [Compound 304] | – | – | Ki (VMAT2; [5]): 0.031 µM; Ki (hERG channel; Table 4, mean, minimally n = 3): 1610 nM; CLint scaled at 0.08 µM [1]: 41 mL/min/kg; Ki [2]: 5.57 µM
CC(Cc1ccc2nccnc2c1)NCCCc1ccc(S(N)(=O)=O)cc1 (stereo not shown) [Compound 305] | 0.046 | – | Ki (hERG channel; Table 4, mean, minimally n = 3): 4390 nM; CLint scaled at 0.08 µM [1]: 43 mL/min/kg; Ki [2]: 20.5 µM
